From patent publication US9518107B2, “Pharmaceutical compositions containing polypeptides derived from α-1 antitrypsin and methods of use thereof” (YISSUM RESEARCH DEVELOPMENT COMPANY OF THE HEBREW …, priority 2010, dated 2016)

What was measured:
Female C57BL/6 mice = assay: Experimental autoimmune encephalitis (EAE), MOG 35-55 induced, neurological score; assay type: in vivo; details: for neurological symptoms (neurological score 0 to 6): i.p. 1 μg/kg, thrice a week, from four days after MOG immunization, FIG. 3
Description: (§1) Female C57BL/6 mice were injected subcutaneously into 4 sites on the back, adjacent to each of the forelimbs and hindlimbs (total amount 200 μl) with a myelin oligodendritic glycoprotein (MOG) 35-55 fragment emulsified with complete Freund's adjuvant. Thereafter, each animal was i.p. injected with pertusis toxin (PTX; 200 ng/mouse) in PBS and an additional
PTX injection was repeated 2 days later, which is a standard protocol for initiating experimental autoimmune encephalomyelitis (EAE) in mice. UBE polypeptide (SEQ ID NO:2) was intraperitoneally (i.p.) injected (0.3 μg/kg, thrice a week) five days after MOG immunization (day of onset of symptoms). The animals were evaluated for neurological score from 0 (no effect) to 6 (severe neurological symptoms including paralysis). Results are the mean±SE of neurological score (sum of all scores divided by the number of animals in each experimental group) at each of the indicated time intervals after MOG injection.
as §1, with “additional PTX injection was repeated 2 days later. Four days after MOG immunization, each mouse received i.p. injections (1 μg/kg, thrice a week) of each of the following polypeptides:” for “additional”
The animals were evaluated for neurological score from 0 (no effect) to 6 (severe neurological symptoms including paralysis). Results are the mean±SE of neurological score (sum of all scores divided by the number of animals in each experimental group) at each of the indicated time intervals after immunization.

arthritic mice = assay: Collagen type II induced arthritis, joint swelling; assay type: in vivo; details: 1 μg/kg thrice a week, from five days after second immunization; FIG. 16
Description: Chick collagen type II (2.0 mg) was incubated overnight in 0.01 M acetic acid (0.9 ml) at 4° C. The resulting solution was emulsified with equal volume (1.0 ml) of […] Freund's Adjuvant containing 5.0 mg heat-killed Mycobacterium tuberculosis. Thereafter, the animal was injected intradermally in the tail base with 100 μl of the emulsion and an additional immunization was repeated 21 days later. Five days later, UBE or UBE1 polypeptide were administered (1 μg/kg thrice a week). The animals were evaluated for the difference in joint thickness (mm) between the indicated time intervals and prior to immunization.

severe sepsis = details: decrease from about 31% without treatment; further trials failed to replicate; cited from earlier work

MPPIVRFDHPFLFIIFEEHTQSPLFVGKVVDPTHK (listed as Mus musculus) [UBE-N, peptide corresponding to residues 379-413 of Mus musculus alpha-1-antitrypsin (serpin a1c)]
neurological symptoms (neurological score 0 to 6) (Female C57BL/6 mice): reduced the neurological symptoms

SMPPIVRFDHPFLFIIFEEHTQSPLFVGKVVDPTH (listed as Mus musculus) [UBE-C, peptide corresponding to residues 378-412 of Mus musculus alpha-1-antitrypsin (serpin a1c)]
neurological symptoms (neurological score 0 to 6) (Female C57BL/6 mice): reduced the neurological symptoms

YSMPPIVRFDHPFLFIIFEEHTQSPLFVGKVVDPTHK (listed as Mus musculus) [UBE1, peptide corresponding to residues 377-413 of Mus musculus alpha-1-antitrypsin (serpin a1c)]
neurological damage in animal models of multiple sclerosis (Female C57BL/6 mice; summary statement, b192 (FIG. 3) does not name UBE1): highly effective in eliminating neurological damage
joint swelling (difference in joint thickness) (arthritic mice): reduction in joint swelling

drotrecogin alfa
mortality in severe sepsis (severe sepsis): about 25%
